Reference: patent US20120039865A1, “IDENTIFICATION OF SORTILIN AS A NEURONAL RECEPTOR FOR THE FRONTOTEMPORAL DEMENTIA PROTEIN, PROGRANULIN” (Yale University, priority 2008, published 2012)

Columns and labels:
[1] = tested on: Rat (Sprague-Dawley) cortical neurons; test: AP-tagged ligand binding to cultured rat cortical neurons
Procedure: (§1) Rat (Sprague-Dawley) cortical neurons were isolated from E18 embryos and cultured in vitro for 3-21 days. Cultures were maintained in Neurobasal-A medium supplemented with B27, GLUTAMAX™ (2 mM), sodium pyruvate (1 mM), penicillin, and streptomycin. The binding of 10 nM AP-PGRN or 10 nM AP was detected as a dark reaction product produced by alkaline phosphatase (AP). Binding was measured as follows. The AP tagged ligand (in NBA) was incubated with the cortical neurons for 1 hr at 4° C., washed three times with HBH buffer, fixed with formaldehyde, and after washing again with HBH the neurons were incubated in a 67° C. oven to inactivate the endogenous AP. The tagged AP was then visualized using AP substrate 5-bromo-4-chloro-3-indolyl phosphate/nitro blue tetrazolium, which results in a dark precipitate. […] The addition of 100 nM Flag-PGRN displaced 10 nM AP-PGRN (FIG. 1C, middle panel).

[2] = biological target: T1, sortilin-1 (Sort1; PGRN-R) (Mus musculus, UniProt Q6PHU5); test: AP-PGRN binding to COS-7 cells transfected with Sort1 cDNA
T1 construct: host or cells: COS-7 (ATCC No. CRL-1651)
T1 sequence (Q6PHU5 74-825): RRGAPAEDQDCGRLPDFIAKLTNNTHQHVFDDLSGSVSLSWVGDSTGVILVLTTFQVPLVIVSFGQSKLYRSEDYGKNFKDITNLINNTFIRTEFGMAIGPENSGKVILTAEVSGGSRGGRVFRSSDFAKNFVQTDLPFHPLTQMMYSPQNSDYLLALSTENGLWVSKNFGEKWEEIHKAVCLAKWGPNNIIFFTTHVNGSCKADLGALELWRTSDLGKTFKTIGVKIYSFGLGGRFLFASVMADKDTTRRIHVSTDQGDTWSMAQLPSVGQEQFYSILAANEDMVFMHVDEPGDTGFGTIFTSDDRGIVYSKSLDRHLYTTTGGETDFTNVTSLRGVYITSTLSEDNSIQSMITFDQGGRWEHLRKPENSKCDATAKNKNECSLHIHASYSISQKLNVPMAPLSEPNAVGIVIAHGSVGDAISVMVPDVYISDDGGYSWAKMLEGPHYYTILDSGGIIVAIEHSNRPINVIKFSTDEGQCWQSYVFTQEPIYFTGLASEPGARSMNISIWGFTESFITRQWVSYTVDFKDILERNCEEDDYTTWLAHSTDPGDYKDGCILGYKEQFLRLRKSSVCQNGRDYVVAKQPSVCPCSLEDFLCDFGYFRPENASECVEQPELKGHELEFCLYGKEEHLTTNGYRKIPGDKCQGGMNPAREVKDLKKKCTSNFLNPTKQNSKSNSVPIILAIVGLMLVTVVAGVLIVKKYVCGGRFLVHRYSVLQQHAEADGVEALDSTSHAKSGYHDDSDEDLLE
Procedure: as §1
To determine the molecular nature of the neuronal binding site of PGRN, expression cloning experiments utilizing AP-PGRN as a tagged ligand were conducted. COS-7 (ATCC No. CRL-1651) cells were transfected with expression vectors containing mouse cDNAs using FUGENE® 6 according to manufacturer's specifications (Roche). […]

[3] = tested on: mouse E17 cortical neurons; test: AP-PGRN binding to mouse cortical neurons (wild type, sortilin +/- and -/-)
Procedure: as §1
Binding was measured according to the methods described above by preincubating 100 nM PGRN with the cortical neurons for 1 hr and using a 5 nM AP-PGRN and 100 nM untagged PGRN mixture. […]
Gene-targeted sortilin −/− and +/− mice from Anders Nykjaer, M.D., Ph.D., Aarhus University, Aarhus, Denmark, were used to obtain cultures of cortical neurons. The binding of 2 nM AP-PGRN to cortical neurons isolated from sortilin −/− (FIG. 3B, left panel) and +/− (FIG. 3B, right panel) mice was evaluated. […]

SorLA = biological target: T2, SorLA (Homo sapiens, UniProt Q92673); test: AP-PGRN binding to COS-7 cells expressing SorLA; conditions: 120 nM AP-PGRN
T2 construct: host or cells: COS-7
Excerpt: (§2) The human SorLA expression vector was provided by Anders Nykjaer, M.D., Ph.D., Aarhus University, Aarhus, Denmark (Jacobsen, L., et al., J. Biol. Chem. 276:22788-22796 (2001); Gliemann, J., et al., Biochem J. 381:203-212 (2004); GenBank Accession No. U60975), and the mouse SorCS1 expression vector in pCMV-Sport6 was obtained from Open Biosystems (GenBank Accession No. BC007486). […] A fragment of PGRN, termed PGRN-E in the literature, binds to sortilin with the same affinity as does full length PGRN (data not shown).

SorCS1 = biological target: T3, SorCS1 (Mus musculus, UniProt Q9JLC4); test: AP-PGRN binding to COS-7 cells expressing SorCS1; conditions: 120 nM AP-PGRN
T3 construct: host or cells: COS-7
T3 sequence (Q9JLC4 34-1167): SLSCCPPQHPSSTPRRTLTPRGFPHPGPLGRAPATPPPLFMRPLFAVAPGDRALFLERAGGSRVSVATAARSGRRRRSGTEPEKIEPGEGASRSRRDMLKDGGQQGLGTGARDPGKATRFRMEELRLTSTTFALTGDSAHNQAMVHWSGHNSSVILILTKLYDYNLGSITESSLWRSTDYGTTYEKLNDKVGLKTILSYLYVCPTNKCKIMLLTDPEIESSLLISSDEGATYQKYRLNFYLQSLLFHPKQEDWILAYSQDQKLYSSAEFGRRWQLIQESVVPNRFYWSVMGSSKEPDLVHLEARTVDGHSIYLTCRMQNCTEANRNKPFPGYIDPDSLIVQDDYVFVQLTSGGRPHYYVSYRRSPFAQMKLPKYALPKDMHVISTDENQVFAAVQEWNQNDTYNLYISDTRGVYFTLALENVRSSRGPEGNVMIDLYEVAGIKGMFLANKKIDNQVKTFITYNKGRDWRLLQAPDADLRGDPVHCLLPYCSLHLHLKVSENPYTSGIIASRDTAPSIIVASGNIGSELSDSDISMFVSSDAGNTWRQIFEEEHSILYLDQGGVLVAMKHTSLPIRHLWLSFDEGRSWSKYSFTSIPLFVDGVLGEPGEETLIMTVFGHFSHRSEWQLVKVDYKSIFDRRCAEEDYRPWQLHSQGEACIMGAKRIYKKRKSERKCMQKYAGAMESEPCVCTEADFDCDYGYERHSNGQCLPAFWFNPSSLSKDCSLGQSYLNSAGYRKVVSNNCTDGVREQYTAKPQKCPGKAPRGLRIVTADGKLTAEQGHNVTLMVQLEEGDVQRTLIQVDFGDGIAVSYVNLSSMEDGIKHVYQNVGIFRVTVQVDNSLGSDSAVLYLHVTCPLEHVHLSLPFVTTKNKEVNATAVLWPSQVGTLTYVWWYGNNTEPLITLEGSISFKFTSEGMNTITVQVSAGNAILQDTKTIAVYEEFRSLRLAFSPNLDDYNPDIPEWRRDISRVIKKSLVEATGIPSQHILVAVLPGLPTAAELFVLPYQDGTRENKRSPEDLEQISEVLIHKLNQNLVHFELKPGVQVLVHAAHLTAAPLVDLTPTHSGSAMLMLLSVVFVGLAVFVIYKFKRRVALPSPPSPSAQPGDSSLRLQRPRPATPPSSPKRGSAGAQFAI
Excerpt: as §2

[4] = tested on: COS-7 cells transfected with empty vector; test: AP-PGRN binding to COS-7 cells transfected with empty vector; conditions: 20 nM AP-PGRN
Procedure: To determine the molecular nature of the neuronal binding site of PGRN, expression cloning experiments utilizing AP-PGRN as a tagged ligand were conducted. COS-7 (ATCC No. CRL-1651) cells were transfected with expression vectors containing mouse cDNAs using FUGENE® 6 according to manufacturer's specifications (Roche). An arrayed adult mouse brain cDNA library (OriGene) of 225,000 clones was screened in pools of 5,000 at a time, as well as a library consisting of 352 individual preparations of cDNAs encoding transmembrane proteins (GFC-transfection array panel, OriGene). The COS-7 cells that specifically bound AP-PGRN (5 nM) contained a single cDNA clone, which encoded a single-pass, membrane-spanning surface glycoprotein that supports high affinity AP-PGRN binding (FIG. 2A, upper-right panel). […] As in mouse cortical neurons, binding of 5 nM AP-PGRN to Sort-1 (PGRN-R) in COS-7 cells was displaceable by excess untagged PGRN (100 nM) and was saturable, with an apparent Kd of 6 nM (FIG. 2A, lower-right panel, and 2B). The binding affinity of AP-PRGN measured for Sort1-transfected COS-7 cells and for neurons was indistinguishable, with a Kd of 5-10 nM (FIG. 2B, 6 nM, and data not shown). In both cases, unlabeled 100 nM PGRN displaced binding (FIG. 2A, lower-right panel, and FIG. 3A, right panel).

[5] = biological target: T4, purified ectodomain of Sort1 (amino acids 60-725 of the human sequence) (Homo sapiens, UniProt Q99523); test: Physical complex of purified proteins isolated by affinity chromatography; assay type: binding; conditions: data not shown
T4 sequence (Q99523 60-725): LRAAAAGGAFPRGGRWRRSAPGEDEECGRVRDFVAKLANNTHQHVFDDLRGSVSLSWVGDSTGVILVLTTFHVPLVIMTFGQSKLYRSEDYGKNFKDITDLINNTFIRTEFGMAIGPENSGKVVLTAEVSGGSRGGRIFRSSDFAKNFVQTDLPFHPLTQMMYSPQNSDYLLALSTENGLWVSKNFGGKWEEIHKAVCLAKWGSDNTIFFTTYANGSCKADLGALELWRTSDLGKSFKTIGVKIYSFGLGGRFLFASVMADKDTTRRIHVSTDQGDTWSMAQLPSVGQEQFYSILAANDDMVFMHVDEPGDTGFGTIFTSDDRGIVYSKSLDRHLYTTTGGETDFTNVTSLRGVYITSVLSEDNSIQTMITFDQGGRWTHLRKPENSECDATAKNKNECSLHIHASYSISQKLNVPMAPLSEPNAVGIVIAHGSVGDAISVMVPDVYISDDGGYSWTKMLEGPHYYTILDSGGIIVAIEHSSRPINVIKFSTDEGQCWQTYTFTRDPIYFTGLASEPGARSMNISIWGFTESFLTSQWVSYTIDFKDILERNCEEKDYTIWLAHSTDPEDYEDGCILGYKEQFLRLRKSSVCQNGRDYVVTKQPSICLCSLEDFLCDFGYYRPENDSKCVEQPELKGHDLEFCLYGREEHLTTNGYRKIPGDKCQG

T2 sequence (Q92673 82-2214): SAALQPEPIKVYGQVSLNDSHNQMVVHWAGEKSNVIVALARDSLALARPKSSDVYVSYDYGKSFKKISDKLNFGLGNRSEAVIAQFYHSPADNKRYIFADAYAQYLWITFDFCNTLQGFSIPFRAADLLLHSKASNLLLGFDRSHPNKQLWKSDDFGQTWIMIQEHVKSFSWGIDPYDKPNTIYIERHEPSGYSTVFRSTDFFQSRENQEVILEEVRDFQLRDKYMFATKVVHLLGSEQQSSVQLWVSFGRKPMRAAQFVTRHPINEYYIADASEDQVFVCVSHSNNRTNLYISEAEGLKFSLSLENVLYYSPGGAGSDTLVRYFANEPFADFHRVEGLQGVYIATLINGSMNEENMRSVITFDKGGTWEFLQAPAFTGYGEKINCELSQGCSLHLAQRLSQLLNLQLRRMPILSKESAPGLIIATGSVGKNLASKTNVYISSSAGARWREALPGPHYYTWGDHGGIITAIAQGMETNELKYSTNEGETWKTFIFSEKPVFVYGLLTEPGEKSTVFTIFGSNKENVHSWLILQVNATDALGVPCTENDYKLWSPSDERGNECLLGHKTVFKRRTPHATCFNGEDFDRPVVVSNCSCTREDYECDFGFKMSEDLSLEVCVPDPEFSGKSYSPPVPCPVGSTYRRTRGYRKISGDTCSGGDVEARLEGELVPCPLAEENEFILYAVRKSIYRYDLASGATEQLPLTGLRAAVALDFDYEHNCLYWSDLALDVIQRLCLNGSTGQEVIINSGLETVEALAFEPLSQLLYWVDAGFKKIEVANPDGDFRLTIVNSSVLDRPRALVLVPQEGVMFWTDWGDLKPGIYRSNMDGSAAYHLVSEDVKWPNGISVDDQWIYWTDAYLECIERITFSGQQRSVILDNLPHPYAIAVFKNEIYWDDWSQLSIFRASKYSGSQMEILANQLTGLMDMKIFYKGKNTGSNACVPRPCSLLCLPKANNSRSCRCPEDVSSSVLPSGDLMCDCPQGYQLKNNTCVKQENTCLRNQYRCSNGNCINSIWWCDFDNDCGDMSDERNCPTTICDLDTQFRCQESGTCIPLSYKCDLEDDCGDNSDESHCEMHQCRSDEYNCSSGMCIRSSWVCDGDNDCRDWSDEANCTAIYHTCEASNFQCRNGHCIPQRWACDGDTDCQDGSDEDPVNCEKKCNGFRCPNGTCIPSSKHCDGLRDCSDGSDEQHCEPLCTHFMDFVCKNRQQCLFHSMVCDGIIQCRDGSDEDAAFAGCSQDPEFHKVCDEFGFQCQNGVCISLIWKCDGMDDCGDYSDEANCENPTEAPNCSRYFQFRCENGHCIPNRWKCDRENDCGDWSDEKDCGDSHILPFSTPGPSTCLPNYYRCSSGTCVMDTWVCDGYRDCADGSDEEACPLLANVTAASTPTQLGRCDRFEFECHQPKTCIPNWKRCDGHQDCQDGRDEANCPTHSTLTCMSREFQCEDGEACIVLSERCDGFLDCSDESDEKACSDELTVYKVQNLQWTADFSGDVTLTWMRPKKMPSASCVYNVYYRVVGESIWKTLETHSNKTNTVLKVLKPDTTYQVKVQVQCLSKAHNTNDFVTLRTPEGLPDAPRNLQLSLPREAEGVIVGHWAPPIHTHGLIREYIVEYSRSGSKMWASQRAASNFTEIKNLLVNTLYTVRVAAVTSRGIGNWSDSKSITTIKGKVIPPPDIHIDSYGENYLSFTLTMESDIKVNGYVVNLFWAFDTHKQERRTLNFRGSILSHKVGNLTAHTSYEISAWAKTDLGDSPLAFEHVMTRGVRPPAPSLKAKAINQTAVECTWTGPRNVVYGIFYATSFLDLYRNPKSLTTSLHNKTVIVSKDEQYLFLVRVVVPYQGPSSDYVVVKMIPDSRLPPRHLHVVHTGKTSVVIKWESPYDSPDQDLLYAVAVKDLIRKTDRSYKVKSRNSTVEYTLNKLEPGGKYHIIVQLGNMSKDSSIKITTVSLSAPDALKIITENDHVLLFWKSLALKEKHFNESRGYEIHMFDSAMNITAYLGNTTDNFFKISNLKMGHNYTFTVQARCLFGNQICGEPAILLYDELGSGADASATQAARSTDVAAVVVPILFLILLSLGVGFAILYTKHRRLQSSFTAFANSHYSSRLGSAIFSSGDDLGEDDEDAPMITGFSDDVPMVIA

Row | Substance | binding to cultured cortical neurons (dark AP reaction product) ([1]; 10 nM AP-tagged ligand, 1 hr at 4° C.) | binding to Sort1-transfected COS-7 cells ([2]; 20 nM ligand) | Kd ([2]; read-out: binding affinity Kd for Sort1-transfected COS-7 cells) | AP-PGRN binding in sortilin -/- cortical neurons ([3]; 2 nM AP-PGRN, neurons from sortilin -/- vs +/- mice) | Kd ([3]; neurons, species not stated, data not shown, read-out: binding affinity Kd for neurons) | affinity for SorLA (SorLA) | affinity for SorCS1 (SorCS1) | binding to empty-vector COS-7 cells [4] | displacement of AP-PGRN binding ([1]; 100 nM competitor against 10 nM AP-PGRN) | complex formation with Sort1 ectodomain [5]
1 | AP-PGRN: alkaline-phosphatase (AP) tagged human progranulin fusion protein produced in HEK293T cells | specifically and discreetly bound | bound | 5 to 10 nM | 30 % of control values | 5 to 10 nM | no affinity | no affinity | did not bind |  | 
2 | Flag-PGRN: FLAG-tagged PGRN produced by HEK293T cell transfection, purified by anti-FLAG affinity gel |  |  |  |  |  |  |  |  | displaced | formed a physical complex
